Data from patent publication US7998979B2, “Antibacterial quinoline derivatives” (Janssen Pharmaceutical N.V., priority 2006, dated 2011).
≈ marks a conversion by molar mass, not a printed value.

Key:
[1] = tested on: Streptococcus pneumoniae (ATCC6305); experiment: IC90 determination, microtitre plate assay, SPN 6305; assay type: cell-based; settings: 90% inhibitory concentration for bacterial growth, 37° C.; for IC90: Streptococcus pneumoniae, ATCC6305, 24 h, read-out: IC90 (μg/ml) SPN 6305; for IC90 (μg/ml) SPN 6305: 24 hours
Method: (§1) D.3. In-Vitro Method for Testing Compounds for Anti-Bacterial Activity Against Various Non-Mycobacterial Strains
(§2) Preparation of Bacterial Suspensions for Susceptibility Testing:
(§3) The bacteria used in this study were grown overnight in flasks containing 100 ml Mueller-Hinton Broth (Becton Dickinson—cat. no. 275730) in sterile de-ionized water, with shaking, at 37° C. Stocks (0.5 ml/tube) were stored at −70° C. until use. Bacteria titrations were performed in microtiter plates to detect the TCID50, in which the TCID50 represents the dilution that gives rise to bacterial growth in 50% of inoculated cultures.
(§4) In general, an inoculum level of approximately 100 TCID50 was used for susceptibility testing.
(§5) Anti Bacterial Susceptibility Testing: IC90 Determination
(§6) Flat-bottom, sterile 96-well plastic microtiter plates were filled with 180 μl of sterile deionized water, supplemented with 0.25% BSA. Subsequently, stock solutions (7.8×final test concentration) of compounds were added in 45 μl volumes in column 2 Serial five-fold dilutions (45 μl in 180 μl) were made directly in the microtiter plates from column 2 to reach column 11. Untreated control samples with (column 1) and without (column 12) inoculum were included in each microtiter plate. Depending on the bacteria type, approximately 10 to 60 CFU per well of bacteria inoculum (100 TCID50), in a volume of 100 μl in 2.8×Mueller-Hinton broth medium, was added to the rows A to H, except column 12. The same volume of broth medium without inoculum was added to column 12 in row A to H. The cultures were incubated at 37° C. for 24 hours under a normal atmosphere (incubator with open air valve and continuous ventilation). At the end of incubation, one day after inoculation, the bacterial growth was quantitated fluorometrically. Therefore resazurin (0.6 mg/ml) was added in a volume of 20 μl to all wells 3 hours after inoculation, and the plates were re-incubated overnight. A change in colour from blue to pink indicated the growth of bacteria. The fluorescence was read in a computer-controlled fluorometer (Cytofluor Biosearch) at an excitation wavelength of 530 nm and an emission wavelength of 590 nm. The % growth inhibition achieved by the compounds was calculated according to standard methods.

[2] = tested on: Staphylococcus aureus (ATCC29213); experiment: IC90 determination, microtitre plate assay, STA 29213; assay type: cell-based; settings: 90% inhibitory concentration for bacterial growth, 37° C.; for IC90 (μg/ml) STA B29213: 24 hours; for IC90: Staphylococcus aureus, ATCC29213, 24 h, read-out: IC90 (μg/ml) STA B29213
Method: as §1, §2, §3, §4, §5, §6

M. Smegmatis (ATCC607) = experiment: In-vitro anti-bacterial activity against strain M. Smegmatis ATCC607; assay type: cell-based; settings: 90% inhibitory concentration for bacterial growth, 37° C.; for IC90 (μg/ml) MSM 607: 48 hours; for IC90: Mycolicibacterium smegmatis, ATCC607, 48 h, read-out: IC90 (μg/ml) MSM 607
Method: D.2. In-Vitro Method for Testing Compounds for Anti-Bacterial Activity Against Strain M. Smegmatis ATCC607
Flat-bottom, sterile 96-well plastic microtiter plates were filled with 180 μl of sterile deionized water, supplemented with 0.25% BSA. Subsequently, stock solutions (7.8×final test concentration) of compounds were added in 45 μl volumes to a series of duplicate wells in column 2 so as to allow evaluation of their effects on bacterial growth. Serial five-fold dilutions (45 μl in 180 μl) were made directly in the microtiter plates from column 2 to 11 using a customised robot system (Zymark Corp., Hopkinton, Mass.). Pipette tips were changed after every 3 dilutions to minimize pipetting errors with high hydrophobic compounds. Untreated control samples with (column 1) and without (column 12) inoculum were included in each microtiter plate. Approximately 250 CFU per well of bacteria inoculum, in a volume of 100 μl in 2.8×Mueller-Hinton broth medium, was added to the rows A to H, except column 12. The same volume of broth medium without inoculum was added to column 12 in row A to H. The cultures were incubated at 37° C. for 48 hours in a humidified 5% CO2 atmosphere (incubator with open air valve and continuous ventilation). At the end of incubation, two days after inoculation, the bacterial growth was quantitated fluorometrically. Therefore Alamar Blue (10×) was added to all wells in a volume of 20 μl and plates were incubated for another 2 hours at […]
The fluorescence was read in a computer-controlled fluorometer (Cytofluor, Biosearch) at an excitation wavelength of 530 nm and an emission wavelength of 590 nm (gain 30).

[3] = tested on: Enterococcus faecalis (ATCC29212); experiment: IC90 determination, microtitre plate assay, EFA 29212; assay type: cell-based; settings: 90% inhibitory concentration for bacterial growth, 24 hours, 37° C., read-out: IC90 (μg/ml) EFA 29212
Method: as §1, §2, §3, §4, §5
(§7) Flat-bottom, sterile 96-well plastic microtiter plates were filled with 180 μl of sterile deionized water, supplemented with 0.25% BSA. […] At the end of incubation, one day after inoculation, the bacterial growth was quantitated fluorometrically. […] The fluorescence was read in a computer-controlled fluorometer (Cytofluor Biosearch) at an excitation wavelength of 530 nm and an emission wavelength of 590 nm. The % growth inhibition achieved by the compounds was calculated according to standard methods.

[4] = tested on: Streptococcus pyogens (ATCC8668); experiment: IC90 determination, microtitre plate assay, SPY 8668; assay type: cell-based; settings: 90% inhibitory concentration for bacterial growth, 24 hours, 37° C., read-out: IC90 (μg/ml) SPY 8668
Method: as §1, §2, §3, §4, §5, §7

[5] = tested on: Pseudomonas aeruginosa (ATCC27853); experiment: IC90 determination, microtitre plate assay, PAE 27853; assay type: cell-based; settings: 90% inhibitory concentration for bacterial growth, 24 hours, 37° C., read-out: IC90 (μg/ml) PAE 27853
Method: as §1, §2, §3, §4, §5, §7

[6] = tested on: Escherichia coli (ATCC35218); experiment: IC90 determination, microtitre plate assay, ECO 35218; assay type: cell-based; settings: 90% inhibitory concentration for bacterial growth, 24 hours, 37° C., read-out: IC90 (μg/ml) ECO 35218
Method: as §1, §2, §3, §4, §5, §7

[7] = tested on: methicilline resistant Staphylococcus aureus (MRSA) (a clinical isolate from the University of Antwerp); experiment: IC90 determination, microtitre plate assay, STA RMETH; assay type: cell-based; settings: 90% inhibitory concentration for bacterial growth, 37° C.; for IC90: Staphylococcus aureus, MRSA, 24 h, read-out: IC90 (μg/ml) STA RMETHIC
Method: as §1, §2, §3, §4, §5
as §6, with “Therefore resazurin (0.6 mg/ml) was added in a volume of 20 μl to all wells 3 hours after inoculation, and the plates were re-incubated overnight. A change in colour from blue to pink indicated the growth of bacteria.” left out

| Structure (SMILES) | IC90 (μg/ml) STA B29213 [2] [µg/mL] | melting point [°C] | IC90 (μg/ml) SPN 6305 [1] [µg/mL] | IC90 [2] [µg/mL] | IC90 (μg/ml) MSM 607 (M. Smegmatis (ATCC607)) [µg/mL] | IC90 (M. Smegmatis (ATCC607)) [µg/mL] | also measured |
| --- | --- | --- | --- | --- | --- | --- | --- |
| COc1nc2ccc(Br)cc2cc1C(c1ccccc1)C(O)(CSCCCN(C)C)c1ccccc1 (single isomer, unassigned) [Compound 3] | 6.35 (≈ 11.2 µM) | – | 2.01 (≈ 3.55 µM) | – | 1.79 (≈ 3.16 µM) | – | IC90 [3]: 11.3 µg/mL (≈ 19.9 µM); IC90 [4]: 7.99 µg/mL (≈ 14.1 µM); IC90 [5]: 11.3 µg/mL (≈ 19.9 µM); IC90 [7]: 11.3 µg/mL (≈ 19.9 µM); IC90 [6]: 14.2 µg/mL (≈ 25.1 µM) |
| COc1nc2ccc(Br)cc2cc1C(c1ccccc1)C(O)(CSCCCN(C)C)c1ccccc1 (single isomer, unassigned) [Compound 4] | – | 136 | 10.06 (≈ 17.8 µM) | 7.99 (≈ 14.1 µM) | – | 2.01 (≈ 3.55 µM) | – |
| CCN(CC)CCSCC(O)(c1ccccc1)C(c1ccccc1)c1cc2cc(Br)ccc2nc1OC (single isomer, unassigned) [Compound 5] | – | – | 2.31 (≈ 3.99 µM) | 58 (≈ 100 µM) | 2.06 (≈ 3.55 µM) | – | – |
| CCN(CC)CCSCC(O)(c1ccccc1)C(c1ccccc1)c1cc2cc(Br)ccc2nc1OC (single isomer, unassigned) [Compound 6] | 51.66 (≈ 89.1 µM) | 148 | 23.07 (≈ 39.8 µM) | – | 10.31 (≈ 17.8 µM) | – | – |
| CCN(CC)CCCSCC(O)(c1ccccc1)C(c1ccccc1)c1cc2cc(Br)ccc2nc1OC (single isomer, unassigned) [Compound 7] | 9.41 (≈ 15.9 µM) | 104 | 2.65 (≈ 4.46 µM) | – | 1.88 (≈ 3.17 µM) | – | – |
| CCN(CC)CCCSCC(O)(c1ccccc1)C(c1ccccc1)c1cc2cc(Br)ccc2nc1OC (single isomer, unassigned) [Compound 8] | 1.88 (≈ 3.17 µM) | – | – | – | – | 1.88 (≈ 3.17 µM) | IC90 [1]: 2.36 µg/mL (≈ 3.98 µM) |
| COc1nc2ccc(Br)cc2cc1C(c1ccccc1)C(O)(CSCCCN1CCCCC1)c1ccccc1 (single isomer, unassigned) [Compound 9] | 60.56 (≈ 100 µM) | 158 | 60.56 (≈ 100 µM) | – | 48.11 (≈ 79.4 µM) | – | – |
| COc1nc2ccc(Br)cc2cc1C(c1ccccc1)C(O)(CSCCCN1CCCCC1)c1ccccc1 (single isomer, unassigned) [Compound 10] | 4.81 (≈ 7.94 µM) | – | 2.15 (≈ 3.55 µM) | – | 1.92 (≈ 3.17 µM) | – | – |
| COc1nc2ccc(Br)cc2cc1C(c1ccccc1)C(O)(CSCCCN1CCN(C)CC1)c1ccccc1 (single isomer, unassigned) [Compound 11] | 4.93 (≈ 7.94 µM) | 136 | 1.96 (≈ 3.16 µM) | – | 1.96 (≈ 3.16 µM) | – | IC90 (μg/ml) STA RMETHIC ([7]; 24 hours): 12.38 µg/mL (≈ 19.9 µM) |
| COc1nc2ccc(Br)cc2cc1C(c1ccccc1)C(O)(CSCCCN1CCN(C)CC1)c1ccccc1 (single isomer, unassigned) [Compound 12] | – | – | – | 4.39 (≈ 7.07 µM) | – | 2.2 (≈ 3.54 µM) | IC90 [1]: 2.2 µg/mL (≈ 3.54 µM); IC90 [7]: 13.9 µg/mL (≈ 22.4 µM) |

More lines, main results first:

| IC90 (μg/ml) STA B29213 [2] [µg/mL] | melting point [°C] | IC90 (μg/ml) SPN 6305 [1] [µg/mL] | IC90 [2] [µg/mL] | Structure (SMILES) | IC90 (μg/ml) MSM 607 (M. Smegmatis (ATCC607)) [µg/mL] | IC90 (M. Smegmatis (ATCC607)) [µg/mL] | also measured |
| --- | --- | --- | --- | --- | --- | --- | --- |
| 8.74 (≈ 15.8 µM) | 175 | – | – | COc1nc2ccc(Br)cc2cc1C(c1ccccc1)C(O)(CSCCN(C)C)c1ccccc1 (single isomer, unassigned) [Compound 1] | 6.94 (≈ 12.6 µM) | – | IC90 [1]: 4.92 µg/mL (≈ 8.92 µM); IC90 [3]: 19.6 µg/mL (≈ 35.5 µM); IC90 [4]: 49.2 µg/mL (≈ 89.1 µM); IC90 [5]: 22 µg/mL (≈ 39.8 µM); IC90 [6]: 55.2 µg/mL (≈ 100 µM) |
| 21.96 (≈ 39.8 µM) | – | 8.74 (≈ 15.8 µM) | – | COc1nc2ccc(Br)cc2cc1C(c1ccccc1)C(O)(CSCCN(C)C)c1ccccc1 (single isomer, unassigned) [Compound 2] | 2.46 (≈ 4.46 µM) | – | – |
| – | 128 | – | 43.6 (≈ 79.4 µM) | COc1nc2ccc(Br)cc2cc1C(c1ccccc1)C(O)(CN(C)CCN(C)C)c1ccccc1 (single isomer, unassigned) [Compound 13] | – | 8.69 (≈ 15.8 µM) | – |
| 54.85 (≈ 100 µM) | – | – | – | COc1nc2ccc(Br)cc2cc1C(c1ccccc1)C(O)(CN(C)CCN(C)C)c1ccccc1 (single isomer, unassigned) [Compound 14] | 8.69 (≈ 15.8 µM) | – | – |
| 62.46 (≈ 100 µM) | – | 62.46 (≈ 100 µM) | – | COc1nc2ccc(Br)cc2cc1C(c1ccccc1)C(O)(CN(CCN(C)C)Cc1ccccc1)c1ccccc1 (stereo not shown) [Compound 15] | 62.46 (≈ 100 µM) | – | – |
| – | – | – | 62.5 (≈ 100 µM) | COc1nc2ccc(Br)cc2cc1C(c1ccccc1)C(O)(CN(CCN(C)C)Cc1ccccc1)c1ccccc1 (stereo not shown) [Compound 16] | – | 55.7 (≈ 89.1 µM) | IC90 [1]: 62.5 µg/mL (≈ 100 µM) |
